Legend:
Details in all cases: 48 h
P12-Ichikawa [1] = assay: cell viability relative to DMSO control; higher = less cytotoxic
Summary of the method: (§1)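 NOMO1 or SEM cells were plated at 500 cells/well and P12-Ichikawa cells at 1000 cells/well in 1536-well plates (5 μl), after each leukemia line had been adapted for at least four passages in each medium. Pin dosing delivered library compounds in DMSO at 11 threefold concentrations, 47 μM to 0.79 nM. CellTiter-Glo One luminescence was read after 48 h at 37°C. Viability is reported as a per-plate percentage of DMSO wells, with cell-free wells as background.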

NOMO1 [2] = assay: as above
Summary of the method: as §1

SEM cells = assay: as above
Summary of the method: as §1

P12-Ichikawa [3] = assay: AUC of viability dose-response curve (% viability x log10 dose units); higher = less sensitive
Summary of the method: (§2)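 Area under the curve was integrated by trapezoidal rule from a log-logistic fit of normalised viability, with curves exceeding full viability scaled and quality-control failures removed. The fit had four parameters over log10 doses. Viability came from CellTiter-Glo One luminescence, normalised per plate to DMSO and cell-free wells, after leukemia cells adapted to each medium (500 or 1000 cells/well, 1536-well plates) were exposed to library compounds in DMSO for 48 h at 37°C. The 11 threefold doses ran from 47 μM to 0.79 nM.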

NOMO1 [4] = assay: as above
Summary of the method: as §2

[5] = HPLM + 10% dialyzed FBS, 0.000781 µM
[6] = HPLM + 10% dialyzed FBS, 0.00234 µM
[7] = HPLM + 10% dialyzed FBS, 0.00702 µM
[8] = HPLM + 10% dialyzed FBS, 0.0211 µM
[9] = HPLM + 10% dialyzed FBS, 0.0632 µM
[10] = HPLM + 10% dialyzed FBS, 0.19 µM
[11] = HPLM + 10% dialyzed FBS, 0.569 µM
[12] = HPLM + 10% dialyzed FBS, 1.71 µM
[13] = HPLM + 10% dialyzed FBS, 5.12 µM
[14] = HPLM + 10% dialyzed FBS, 15.4 µM
[15] = HPLM + 10% dialyzed FBS, 46.1 µM
[16] = RPMI 5 mM glucose + 10% FBS, 0.000781 µM
[17] = RPMI 5 mM glucose + 10% FBS, 0.00234 µM
[18] = RPMI 5 mM glucose + 10% FBS, 0.00702 µM
[19] = RPMI 5 mM glucose + 10% FBS, 0.0211 µM
[20] = RPMI 5 mM glucose + 10% FBS, 0.0632 µM
[21] = RPMI 5 mM glucose + 10% FBS, 0.19 µM
[22] = RPMI 5 mM glucose + 10% FBS, 0.569 µM
[23] = RPMI 5 mM glucose + 10% FBS, 1.71 µM
[24] = RPMI 5 mM glucose + 10% FBS, 5.12 µM
[25] = RPMI 5 mM glucose + 10% FBS, 15.4 µM
[26] = RPMI 5 mM glucose + 10% FBS, 46.1 µM
[27] = RPMI 5 mM glucose + 10% dialyzed FBS, 0.000781 µM
[28] = RPMI 5 mM glucose + 10% dialyzed FBS, 0.00234 µM
[29] = RPMI 5 mM glucose + 10% dialyzed FBS, 0.00702 µM
[30] = RPMI 5 mM glucose + 10% dialyzed FBS, 0.0211 µM
[31] = RPMI 5 mM glucose + 10% dialyzed FBS, 0.0632 µM
[32] = RPMI 5 mM glucose + 10% dialyzed FBS, 0.19 µM
[33] = RPMI 5 mM glucose + 10% dialyzed FBS, 0.569 µM
[34] = RPMI 5 mM glucose + 10% dialyzed FBS, 1.71 µM
[35] = RPMI 5 mM glucose + 10% dialyzed FBS, 5.12 µM
[36] = RPMI 5 mM glucose + 10% dialyzed FBS, 15.4 µM
[37] = RPMI 5 mM glucose + 10% dialyzed FBS, 46.1 µM
[38] = RPMI 5 mM glucose + 10% dialyzed FBS

Clc1ccc(C(c2ccccc2Cl)C(Cl)Cl)cc1 (centres undefined)
cell viability (P12-Ichikawa [1]; [5]): 113%
cell viability (P12-Ichikawa [1]; [6]): 119%
cell viability (P12-Ichikawa [1]; [7]): 116%
cell viability (P12-Ichikawa [1]; [8]): 112%
cell viability (P12-Ichikawa [1]; [9]): 118%
cell viability (P12-Ichikawa [1]; [10]): 119%
cell viability (P12-Ichikawa [1]; [11]): 107%
cell viability (P12-Ichikawa [1]; [12]): 110%
cell viability (P12-Ichikawa [1]; [13]): 103%
cell viability (P12-Ichikawa [1]; [14]): 95.4%
cell viability (P12-Ichikawa [1]; [15]): 91.6%
cell viability (P12-Ichikawa [1]; [16]): 122%
cell viability (P12-Ichikawa [1]; [17]): 118%
cell viability (P12-Ichikawa [1]; [18]): 116%
cell viability (P12-Ichikawa [1]; [19]): 109%
cell viability (P12-Ichikawa [1]; [20]): 119%
cell viability (P12-Ichikawa [1]; [21]): 107%
cell viability (P12-Ichikawa [1]; [22]): 104%
cell viability (P12-Ichikawa [1]; [23]): 116%
cell viability (P12-Ichikawa [1]; [24]): 106%
cell viability (P12-Ichikawa [1]; [25]): 103%
cell viability (P12-Ichikawa [1]; [26]): 94.4%
cell viability (P12-Ichikawa [1]; [27]): 122%
cell viability (P12-Ichikawa [1]; [28]): 120%
cell viability (P12-Ichikawa [1]; [29]): 109%
cell viability (P12-Ichikawa [1]; [30]): 112%
cell viability (P12-Ichikawa [1]; [31]): 116%
cell viability (P12-Ichikawa [1]; [32]): 107%
cell viability (P12-Ichikawa [1]; [33]): 106%
cell viability (P12-Ichikawa [1]; [34]): 106%
cell viability (P12-Ichikawa [1]; [35]): 103%
cell viability (P12-Ichikawa [1]; [36]): 99.6%
cell viability (P12-Ichikawa [1]; [37]): 97.2%
cell viability (NOMO1 [2]; [5]): 137%
cell viability (NOMO1 [2]; [6]): 124%
cell viability (NOMO1 [2]; [7]): 123%
cell viability (NOMO1 [2]; [8]): 122%
cell viability (NOMO1 [2]; [9]): 120%
cell viability (NOMO1 [2]; [10]): 107%
cell viability (NOMO1 [2]; [11]): 116%
cell viability (NOMO1 [2]; [12]): 122%
cell viability (NOMO1 [2]; [13]): 114%
cell viability (NOMO1 [2]; [14]): 99.8%
cell viability (NOMO1 [2]; [15]): 101%
cell viability (NOMO1 [2]; [16]): 105%
cell viability (NOMO1 [2]; [17]): 115%
cell viability (NOMO1 [2]; [18]): 126%
cell viability (NOMO1 [2]; [19]): 118%
cell viability (NOMO1 [2]; [20]): 137%
cell viability (NOMO1 [2]; [21]): 134%
cell viability (NOMO1 [2]; [22]): 120%
cell viability (NOMO1 [2]; [23]): 119%
cell viability (NOMO1 [2]; [24]): 110%
cell viability (NOMO1 [2]; [25]): 98.2%
cell viability (NOMO1 [2]; [26]): 93.2%
cell viability (NOMO1 [2]; [27]): 106%
cell viability (NOMO1 [2]; [28]): 115%
cell viability (NOMO1 [2]; [29]): 129%
cell viability (NOMO1 [2]; [30]): 106%
cell viability (NOMO1 [2]; [31]): 111%
cell viability (NOMO1 [2]; [32]): 109%
cell viability (NOMO1 [2]; [33]): 97.1%
cell viability (NOMO1 [2]; [34]): 120%
cell viability (NOMO1 [2]; [35]): 101%
cell viability (NOMO1 [2]; [36]): 95%
cell viability (NOMO1 [2]; [37]): 99.4%
cell viability (SEM cells; [5]): 119%
cell viability (SEM cells; [6]): 116%
cell viability (SEM cells; [7]): 120%
cell viability (SEM cells; [8]): 121%
cell viability (SEM cells; [9]): 139%
cell viability (SEM cells; [10]): 36.1%
cell viability (SEM cells; [11]): 117%
cell viability (SEM cells; [12]): 126%
cell viability (SEM cells; [13]): 33.2%
cell viability (SEM cells; [14]): 109%
cell viability (SEM cells; [15]): 85.9%
cell viability (SEM cells; [16]): 116%
cell viability (SEM cells; [17]): 121%
cell viability (SEM cells; [18]): 111%
cell viability (SEM cells; [19]): 110%
cell viability (SEM cells; [20]): 112%
cell viability (SEM cells; [21]): 36.7%
cell viability (SEM cells; [22]): 137%
cell viability (SEM cells; [23]): 106%
cell viability (SEM cells; [24]): 12.6%
cell viability (SEM cells; [25]): 97.6%
cell viability (SEM cells; [26]): 75.1%
AUC of viability dose-response curve (P12-Ichikawa [3]; HPLM + 10% dialyzed FBS): 452
AUC of viability dose-response curve (P12-Ichikawa [3]; RPMI 5 mM glucose + 10% FBS): 436
AUC of viability dose-response curve (P12-Ichikawa [3]; [38]): 432
AUC of viability dose-response curve (NOMO1 [4]; HPLM + 10% dialyzed FBS): 427
AUC of viability dose-response curve (NOMO1 [4]; RPMI 5 mM glucose + 10% FBS): 456
AUC of viability dose-response curve (NOMO1 [4]; [38]): 448

Reference: the supplement of paper PMC11451515
